Our source for the inhibition and IC50 values is patent US11174232B2, “Substituted heterocyclyl derivatives as CDK inhibitors” (Aurigene Discovery Technologies Limited, priority 2015, dated 2021).

What is called inhibition is how much of the control response was suppressed. As usually defined, the IC50 is the midpoint of a concentration-inhibition curve.

In the assay the target is CDK7/CycH/MNAT1 (Homo sapiens (Human), UniProt P50613). The assay can be described thus: Biochemical Assay for CDK7 (TR-FRET kinase assay). The settings on record: 60 min pre-incubation with kinase, 1 mM ATP; for inhibition at 10 µM: 10 μM compound. The procedure, abridged: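 TR-FRET with 5 nM CDK7/CycH/MNAT1, compound pre-incubated 60 min at room temperature, then 100 nM ULight-MBP and 1 mM ATP for 60 min; stopped with EDTA, Eu anti-phospho-MBP read at 665/615 nm. 1% DMSO; IC50 from sigmoidal fit. Time-dependence tested with 20, 60, 180 min pre-incubation.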
Sequence of CDK7/CycH/MNAT1 (P50613 whole entry): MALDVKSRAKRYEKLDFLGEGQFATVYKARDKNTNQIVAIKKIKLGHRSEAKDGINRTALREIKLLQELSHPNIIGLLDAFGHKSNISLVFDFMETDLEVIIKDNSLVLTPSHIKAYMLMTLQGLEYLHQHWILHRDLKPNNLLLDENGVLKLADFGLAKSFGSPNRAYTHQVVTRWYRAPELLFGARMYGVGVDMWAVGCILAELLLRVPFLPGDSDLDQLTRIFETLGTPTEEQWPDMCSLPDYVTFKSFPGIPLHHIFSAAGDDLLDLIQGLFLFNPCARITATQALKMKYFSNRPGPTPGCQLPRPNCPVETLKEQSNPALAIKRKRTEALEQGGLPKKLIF
Sequence of CDK7/CycH/MNAT1 (P51946 whole entry partner): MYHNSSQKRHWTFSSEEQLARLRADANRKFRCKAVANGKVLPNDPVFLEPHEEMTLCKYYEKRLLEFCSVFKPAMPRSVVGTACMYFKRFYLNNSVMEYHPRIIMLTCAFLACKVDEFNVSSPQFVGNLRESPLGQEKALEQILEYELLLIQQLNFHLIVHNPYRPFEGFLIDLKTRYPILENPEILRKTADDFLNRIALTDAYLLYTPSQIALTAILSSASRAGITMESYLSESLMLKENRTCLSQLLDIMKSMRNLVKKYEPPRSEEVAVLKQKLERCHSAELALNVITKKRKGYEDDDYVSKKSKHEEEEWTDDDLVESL
Sequence of CDK7/CycH/MNAT1 (P51948 whole entry partner): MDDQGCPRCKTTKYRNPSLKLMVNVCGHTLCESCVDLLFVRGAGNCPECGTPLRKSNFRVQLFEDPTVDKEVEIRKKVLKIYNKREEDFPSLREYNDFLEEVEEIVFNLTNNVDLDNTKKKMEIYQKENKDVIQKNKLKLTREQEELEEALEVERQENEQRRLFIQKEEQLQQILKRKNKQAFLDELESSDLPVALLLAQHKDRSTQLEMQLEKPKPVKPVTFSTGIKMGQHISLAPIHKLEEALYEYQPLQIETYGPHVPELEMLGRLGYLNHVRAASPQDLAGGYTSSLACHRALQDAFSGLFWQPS

Take `C=CC(=O)Nc1ccc(-c2cccc(C(C)C(=O)Nc3cc(C(C)(C)C)[nH]n3)c2)cc1` (stereo not shown) [Compound 88, N-(3′-(1-((5-(tert-butyl)-1H-pyrazol-3-yl)amino)-1-oxopropan-2-yl)-[1,1′-biphenyl]-4-yl)acrylamide]: the inhibition at 10 µM came to 62% and the IC50 is over 100 nM.

Compound `CC(C(=O)Nc1cc(C2CC2)[nH]n1)c1cccc(-c2ccc(NC(=O)/C=C/CN3CCOCC3)nc2F)c1` (stereo not shown) [Compound 59, (E)-N-(5-(3-(1-((5-cyclopropyl-1H-pyrazol-3-yl)amino)-1-oxopropan-2-yl)phenyl)-6-fluoropyridin-2-yl)-4-morpholinobut-2-enamide] returned an inhibition at 10 µM of 99% and an IC50 of 25 to 100 nM.

`CC(C(=O)Nc1cc(C2CC2)[nH]n1)c1cccc(-c2ccc(NC(=O)/C=C/CN3CCOCC3)c(F)n2)c1` (stereo not shown) [Compound 58, (E)-N-(6-(3-(1-((5-cyclopropyl-1H-pyrazol-3-yl)amino)-1-oxopropan-2-yl)phenyl)-2-fluoropyridin-3-yl)-4-morpholinobut-2-enamide] returned an inhibition at 10 µM of 90% and an IC50 of over 100 nM.

`CC(C(=O)Nc1cc(C2CC2)[nH]n1)c1cccc(-c2ccc(NC(=O)/C=C/CN(C)C)cc2F)c1` (stereo not shown) [Compound 17, (E)-N-(3′-(1-((5-cyclopropyl-1H-pyrazol-3-yl)amino)-1-oxopropan-2-yl)-2-fluoro-[1,1′-biphenyl]-4-yl)-4-(dimethylamino)but-2-enamide] gave an inhibition at 10 µM of 80% and an IC50 of over 100 nM.

Compound `CC(C(=O)Nc1cc(C2CC2)[nH]n1)c1cccc(-c2ccc(NC(=O)/C=C/CN(C)C)nc2)c1` (stereo not shown) [Compound 42, (E)-N-(5-(3-(1-((5-cyclopropyl-1H-pyrazol-3-yl)amino)-1-oxopropan-2-yl)phenyl)pyridin-2-yl)-4-(dimethylamino)but-2-enamide] returned an inhibition at 10 µM of 98% and an IC50 of under 25 nM.

The compound `CC(C(=O)Nc1cc(C2CC2)[nH]n1)c1cccc(-c2ccc(NC(=O)/C=C/CN(C)C)cc2)c1` (stereo not shown) [Compound 1, (E)-N-(3′-(1-((5-cyclopropyl-1H-pyrazol-3-yl)amino)-1-oxopropan-2-yl)-[1,1′-biphenyl]-4-yl)-4-(dimethylamino)but-2-enamide] came in with an inhibition at 10 µM of 92% and an IC50 of 25 to 100 nM.

Take `C=CC(=O)Nc1ccc(-c2cc(C(C)C(=O)Nc3cc(C4CC4)[nH]n3)ccc2F)cc1F` (stereo not shown) [Compound 23, N-(5′-(1-((5-cyclopropyl-1H-pyrazol-3-yl)amino)-1-oxopropan-2-yl)-2′,3-difluoro-[1,1′-biphenyl]-4-yl)acrylamide]: the inhibition at 10 µM was 98% and the 50% inhibitory concentration (IC50) fell in the range of 25 to 100 nM.

Regarding `CC(C(=O)Nc1cc(C2CC2)[nH]n1)c1cccc(-c2ccc(NC(=O)/C=C/CN3CCC[C@H]3CC#N)nc2)c1` (stereo partly drawn) [Compound 82, (E)-4-((S)-2-(cyanomethyl)pyrrolidin-1-yl)-N-(5-(3-(1-((5-cyclopropyl-1H-pyrazol-3-yl)amino)-1-oxopropan-2-yl)phenyl)pyridin-2-yl)but-2-enamide], the inhibition at 10 µM was 99% and the IC50 lay within 25 to 100 nM.
